From ChEMBL document CHEMBL1201862, “PubChem BioAssay data set” (2004)
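In this assay, cells in 96-well plates receive the compound at five concentrations for 48 hours. Endpoints are linearly interpolated between the surrounding concentrations. GI50 = concentration required for 50% inhibition of growth.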 Activity calls are given as the source filed them. No stated cut-off is given here; in the data, active = GI50 up to about 1.1 µM and inactive = higher.

Columns and labels:
Test in all cases: NCI tumour cell line growth inhibition, 48 h
786-0 = tested on: 786-0
A498 = tested on: A498
ACHN = tested on: ACHN
CCRF-CEM = tested on: CCRF-CEM
EKVX = tested on: EKVX
HOP-62 = tested on: HOP-62
IGROV-1 = tested on: IGROV-1
M14 = tested on: M14
MOLT-4 = tested on: MOLT-4
NCI-H460 = tested on: NCI-H460
OVCAR-5 = tested on: OVCAR-5
RPMI-8226 = tested on: RPMI-8226
SF-268 = tested on: SF-268
SK-MEL-2 = tested on: SK-MEL-2
U-251 = tested on: U-251
UACC-257 = tested on: UACC-257
UO-31 = tested on: UO-31

Compound	GI50 (786-0)	GI50 (A498)	GI50 (ACHN)	GI50 (CCRF-CEM)	GI50 (EKVX)	GI50 (HOP-62)	GI50 (IGROV-1)	GI50 (M14)	GI50 (MOLT-4)	GI50 (NCI-H460)	GI50 (OVCAR-5)	GI50 (RPMI-8226)	GI50 (SF-268)	GI50 (SK-MEL-2)	GI50 (U-251)	GI50 (UACC-257)	GI50 (UO-31)
Cc1c(CCl)c(=O)oc2c(C)c3occ(CCl)c(=O)c3cc12	> 100 µM (inactive)	> 100 µM (inactive)	> 100 µM (inactive)	3.18 µM (inactive)	> 100 µM (inactive)	> 100 µM (inactive)	20.3 µM (inactive)	17 µM (inactive)	6.35 µM (inactive)	> 100 µM (inactive)	> 100 µM (inactive)	8.69 µM (inactive)	24.7 µM (inactive)	> 100 µM (inactive)	> 100 µM (inactive)	> 100 µM (inactive)	17.5 µM (inactive)
CCOC(=O)Cc1csc(Nc2ccc(OCC)cc2)n1	> 100 µM (inactive)	> 100 µM (inactive)	> 100 µM (inactive)		> 100 µM (inactive)	> 100 µM (inactive)	> 100 µM (inactive)		61.8 µM (inactive)	> 100 µM (inactive)		> 100 µM (inactive)	> 100 µM (inactive)	> 100 µM (inactive)	> 100 µM (inactive)	> 100 µM (inactive)	> 100 µM (inactive)
O=C1CC23CC(=O)CC2(C1)c1ccccc1C3=O (stereo not given)	> 100 µM (inactive)		> 100 µM (inactive)	> 100 µM (inactive)	> 100 µM (inactive)	> 100 µM (inactive)	> 100 µM (inactive)	> 100 µM (inactive)	> 100 µM (inactive)	> 100 µM (inactive)	> 100 µM (inactive)	> 100 µM (inactive)	> 100 µM (inactive)	> 100 µM (inactive)	> 100 µM (inactive)	> 100 µM (inactive)	> 100 µM (inactive)
COc1ccc(C2=C3c4cc(OC)c(OC)cc4CCN3C(=S)SS2)cc1OC	> 100 µM (inactive)	46.6 µM (inactive)	54.8 µM (inactive)	46.5 µM (inactive)	> 100 µM (inactive)	> 100 µM (inactive)	> 100 µM (inactive)	98.2 µM (inactive)	> 100 µM (inactive)	> 100 µM (inactive)	> 100 µM (inactive)	63.2 µM (inactive)	72.1 µM (inactive)	57 µM (inactive)	61.1 µM (inactive)	72.4 µM (inactive)	> 100 µM (inactive)
O=C(NCCS(=O)(=O)N1C(=O)C2CCCN2C(=O)[C@@H]1Cc1ccccc1)OCc1ccccc1 (stereo not given in full)	78.9 µM (inactive)	25.3 µM (inactive)	35 µM (inactive)	45.4 µM (inactive)	40.9 µM (inactive)	99.8 µM (inactive)	72.6 µM (inactive)	36 µM (inactive)	48 µM (inactive)	40.4 µM (inactive)	70.3 µM (inactive)	23.3 µM (inactive)	45.6 µM (inactive)		55.3 µM (inactive)	48.2 µM (inactive)	28.2 µM (inactive)
CNS(=O)(=O)NNS(=O)(=O)c1ccc(Cl)cc1	> 100 µM (inactive)	> 100 µM (inactive)	> 100 µM (inactive)	> 100 µM (inactive)	> 100 µM (inactive)	> 100 µM (inactive)	> 100 µM (inactive)	> 100 µM (inactive)	> 100 µM (inactive)	> 100 µM (inactive)	> 100 µM (inactive)	> 100 µM (inactive)	> 100 µM (inactive)	> 100 µM (inactive)		> 100 µM (inactive)	48.2 µM (inactive)
N#CCc1nnc(N)o1	> 100 µM (inactive)		> 100 µM (inactive)	> 100 µM (inactive)	> 100 µM (inactive)		> 100 µM (inactive)	> 100 µM (inactive)	> 100 µM (inactive)			> 100 µM (inactive)	> 100 µM (inactive)	> 100 µM (inactive)	> 100 µM (inactive)	> 100 µM (inactive)	> 100 µM (inactive)
C=C1C[C@]23CCC4C(C)(C)C(=O)CC[C@]4(C)C2C[C@H]1C(O)C3=O (stereo not given in full)	> 75 µM (inactive)	> 75 µM (inactive)	> 75 µM (inactive)	> 75 µM (inactive)	> 75 µM (inactive)	> 75 µM (inactive)	> 75 µM (inactive)	> 75 µM (inactive)	> 75 µM (inactive)			> 75 µM (inactive)	> 75 µM (inactive)	> 75 µM (inactive)	> 75 µM (inactive)	> 75 µM (inactive)	> 75 µM (inactive)
C=C1CC(c2ccc(O)c(OC)c2)Oc2c(OC)cccc21 (stereo not given)	58.9 µM (inactive)		47.4 µM (inactive)	23.8 µM (inactive)	40.6 µM (inactive)	85.3 µM (inactive)	36 µM (inactive)	34 µM (inactive)	25.1 µM (inactive)	35.1 µM (inactive)	65.5 µM (inactive)		33 µM (inactive)		30.7 µM (inactive)	39.3 µM (inactive)	60.3 µM (inactive)
Cc1cc2c3ccccc3n(C)c2c2c1C(=O)c1ccccc1C2=O	16.5 µM (inactive)	25.6 µM (inactive)		5.18 µM (inactive)	24.3 µM (inactive)	20.4 µM (inactive)	19.4 µM (inactive)	19.1 µM (inactive)	5.83 µM (inactive)			6.3 µM (inactive)	25 µM (inactive)	20 µM (inactive)		20 µM (inactive)	10.5 µM (inactive)
O=C(COc1ccc(Cl)cc1)N1N=C(c2ccc([N+](=O)[O-])o2)CC1(O)c1ccccc1 (stereo not given)	7.62 µM (inactive)		6.03 µM (inactive)			20 µM (inactive)	6.24 µM (inactive)	11.8 µM (inactive)	3.42 µM (inactive)	11.1 µM (inactive)	15.8 µM (inactive)	2.28 µM (inactive)	10.5 µM (inactive)	7.24 µM (inactive)	4.94 µM (inactive)	4.05 µM (inactive)	11.4 µM (inactive)
CN(C)CCn1c2ccccc2c2nc3cc4ccccc4cc3nc21	3.23 µM (inactive)	2.34 µM (inactive)	2.48 µM (inactive)	2.88 µM (inactive)	12.6 µM (inactive)	3.07 µM (inactive)	2.08 µM (inactive)	4.1 µM (inactive)	0.885 µM (active)	0.796 µM (active)		2.91 µM (inactive)	2.14 µM (inactive)	11.1 µM (inactive)	6.79 µM (inactive)		5.07 µM (inactive)
NNC(=S)N/N=C(/C(=O)Nc1cc(Cl)ccc1Cl)C1C(=O)Nc2ccccc2[S+]1[O-] (stereo not given)	> 100 µM (inactive)	> 100 µM (inactive)	> 100 µM (inactive)	> 100 µM (inactive)	55.1 µM (inactive)	> 100 µM (inactive)	> 100 µM (inactive)	> 100 µM (inactive)	78.9 µM (inactive)	> 100 µM (inactive)	> 100 µM (inactive)		> 100 µM (inactive)	> 100 µM (inactive)	> 100 µM (inactive)	> 100 µM (inactive)	> 100 µM (inactive)
CCN1CCC(O)(c2ccc(OC)cc2)C(C(=O)c2ccc(OC)cc2)C1 (stereo not given)	13.3 µM (inactive)	> 10 µM (inactive)	16.4 µM (inactive)		30.5 µM (inactive)	> 100 µM (inactive)	> 100 µM (inactive)	15.7 µM (inactive)	17.5 µM (inactive)	24 µM (inactive)	18.4 µM (inactive)	4.25 µM (inactive)	20.6 µM (inactive)	19.6 µM (inactive)	16.7 µM (inactive)	20.6 µM (inactive)	18.4 µM (inactive)
CN(C)c1c([O-])c(=[N+](C)C)c1=O	> 100 µM (inactive)	> 100 µM (inactive)	> 100 µM (inactive)	> 100 µM (inactive)	> 100 µM (inactive)	> 100 µM (inactive)	> 100 µM (inactive)	> 100 µM (inactive)	> 100 µM (inactive)	> 100 µM (inactive)	> 100 µM (inactive)		> 100 µM (inactive)	> 100 µM (inactive)	> 100 µM (inactive)	> 100 µM (inactive)	> 100 µM (inactive)
C[C@H]1CCC2C(CN3CCCCC3)C(=O)OC2[C@]2(C)C(=O)CC(N3CCCCC3)C12O (stereo not given in full)	4.54 µM (inactive)	4.12 µM (inactive)	2.8 µM (inactive)	2.34 µM (inactive)	4 µM (inactive)		18.8 µM (inactive)		2.21 µM (inactive)	12.8 µM (inactive)	10.7 µM (inactive)	2.71 µM (inactive)	6.95 µM (inactive)	10.7 µM (inactive)	5.53 µM (inactive)	3.1 µM (inactive)	13.7 µM (inactive)
CC1(C)CCc2cc3c(cc2O1)OCC1c2cc4c(cc2OC31)OCO4 (stereo not given)	> 100 µM (inactive)	> 100 µM (inactive)	> 100 µM (inactive)	> 100 µM (inactive)	> 100 µM (inactive)	> 100 µM (inactive)	> 100 µM (inactive)	> 100 µM (inactive)	> 100 µM (inactive)	54.5 µM (inactive)	> 100 µM (inactive)	> 100 µM (inactive)	> 100 µM (inactive)		> 100 µM (inactive)	28 µM (inactive)	> 100 µM (inactive)
O=C(NCCCN1CCN(CCCNC(=O)c2cccc3ccccc23)CC1)c1cccc2ccccc12	44.1 µM (inactive)	> 100 µM (inactive)	> 100 µM (inactive)	> 100 µM (inactive)	> 100 µM (inactive)	30.8 µM (inactive)	78.3 µM (inactive)	> 100 µM (inactive)	> 100 µM (inactive)	93.1 µM (inactive)	> 100 µM (inactive)	> 100 µM (inactive)		> 100 µM (inactive)	97.5 µM (inactive)	> 100 µM (inactive)	32.3 µM (inactive)
